According to ChEMBL document CHEMBL1131659, “Synthesis, SAR and pharmacology of CP-293,019: a potent, selective dopamine D4 receptor antagonist” (Bioorg Med Chem Lett, 1998):

How the values were obtained:
[1] = molecular target: T1, D(4) dopamine receptor (Homo sapiens, UniProt P21917); test: biochemical
T1 sequence (P21917 whole entry): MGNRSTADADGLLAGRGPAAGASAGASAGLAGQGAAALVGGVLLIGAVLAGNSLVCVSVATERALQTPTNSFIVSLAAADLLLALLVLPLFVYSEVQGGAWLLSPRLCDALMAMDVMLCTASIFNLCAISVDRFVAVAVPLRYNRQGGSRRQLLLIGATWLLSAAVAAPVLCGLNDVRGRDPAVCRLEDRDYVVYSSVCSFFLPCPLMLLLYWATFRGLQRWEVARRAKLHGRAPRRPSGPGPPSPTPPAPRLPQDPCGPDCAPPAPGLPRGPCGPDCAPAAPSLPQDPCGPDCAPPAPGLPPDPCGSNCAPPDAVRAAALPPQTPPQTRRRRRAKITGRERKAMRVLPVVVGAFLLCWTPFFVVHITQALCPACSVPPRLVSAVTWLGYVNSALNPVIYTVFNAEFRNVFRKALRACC
Description: In vitro binding affinity at human D4 dopamine receptor in CHO cells by [3H]spiperone displacement.

[2] = molecular target: D(3) dopamine receptor (Homo sapiens, UniProt P35462); test: In vitro binding affinity against human D3 dopamine receptor in CHO cells using [3H]spiperone; format: cell-based
[3] = In vivo percentage mean absolute bioavailability of compound in rat after an oral dose of 10 mg/kg (in water, N=4); format: ADME, organism-based
[4] = In vivo maximum concentration of compound in rat plasma after a oral dose of 10 mg/kg (in water, N=4); format: ADME, organism-based; design: dose 10 mg/kg, route oral
[5] = The compound was tested In Vitro for half life in human liver microsomes.; format: ADME, Microsome
[6] = test system: Rattus norvegicus; test: in vivo for inhibition against hyperactivity induced by apomorphine (1.78 mg/kg) in habituated rats by subcutaneous administration; format: functional; conditions: sc, read-out: ID50 (the source's name)
[7] = molecular target: T2, 5-hydroxytryptamine receptor 1A (Mus musculus, UniProt Q64264); test: In vitro binding affinity against 5-hydroxytryptamine 1A receptor in CHO cells; format: cell-based
T2 sequence (Q64264 whole entry): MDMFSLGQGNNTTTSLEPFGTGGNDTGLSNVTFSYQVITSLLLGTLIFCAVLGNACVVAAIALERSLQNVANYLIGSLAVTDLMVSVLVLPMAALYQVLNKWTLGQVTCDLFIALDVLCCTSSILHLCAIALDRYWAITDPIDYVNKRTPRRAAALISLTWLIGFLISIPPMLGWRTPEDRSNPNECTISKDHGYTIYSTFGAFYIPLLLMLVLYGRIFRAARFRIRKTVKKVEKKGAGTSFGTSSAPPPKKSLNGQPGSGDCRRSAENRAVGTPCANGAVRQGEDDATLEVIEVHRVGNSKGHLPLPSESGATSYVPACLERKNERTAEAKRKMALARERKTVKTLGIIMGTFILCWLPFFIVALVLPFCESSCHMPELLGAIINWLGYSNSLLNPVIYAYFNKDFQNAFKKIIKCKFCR

[8] = test system: Rattus norvegicus; test: in vivo for inhibition against hyperactivity induced by apomorphine (1.78 mg/kg) in habituated rats by oral administration; format: functional; conditions: read-out: ID50 (the source's name)
[9] = In vivo half life of compound in rat plasma after a oral dose of 10 mg/kg (in water, N=4); format: ADME, organism-based; design: dose 10 mg/kg, route oral
[10] = test system: Rattus norvegicus; test: Compound was tested for spontaneous locomotor activity in nonhabituated rats when administered po; format: functional; conditions: read-out: ID50 (the source's name)
[11] = test system: Rattus norvegicus; test: Compound was tested for inhibition of APO-induced blockade of prepulse inhibition in rats when administered sc; format: functional; conditions: read-out: ID50 (the source's name)
[12] = test system: Rattus norvegicus; test: Compound was tested for antagonistic activity against APO-induced stereotypy in rats when administered po; format: functional; conditions: read-out: ID50 (the source's name)
[13] = molecular target: 5-hydroxytryptamine receptor 2A (Homo sapiens, UniProt P28223); test: In vitro binding affinity against 5-hydroxytryptamine 2A receptor in CHO cells; format: cell-based
Chain of 5-hydroxytryptamine receptor 2A (P28223 whole entry): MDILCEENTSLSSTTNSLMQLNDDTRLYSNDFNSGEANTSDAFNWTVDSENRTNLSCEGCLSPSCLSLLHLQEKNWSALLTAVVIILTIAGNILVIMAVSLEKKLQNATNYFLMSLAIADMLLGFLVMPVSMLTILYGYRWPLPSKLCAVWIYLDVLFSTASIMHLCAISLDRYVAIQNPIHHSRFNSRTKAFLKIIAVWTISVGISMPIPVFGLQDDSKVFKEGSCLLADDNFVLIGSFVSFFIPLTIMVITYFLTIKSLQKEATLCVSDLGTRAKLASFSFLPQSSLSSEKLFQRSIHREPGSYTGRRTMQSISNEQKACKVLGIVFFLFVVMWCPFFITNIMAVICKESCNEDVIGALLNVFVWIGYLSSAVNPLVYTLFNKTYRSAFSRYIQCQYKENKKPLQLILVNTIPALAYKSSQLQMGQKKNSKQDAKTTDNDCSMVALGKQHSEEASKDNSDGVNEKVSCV

Chain of D(3) dopamine receptor (P35462 whole entry): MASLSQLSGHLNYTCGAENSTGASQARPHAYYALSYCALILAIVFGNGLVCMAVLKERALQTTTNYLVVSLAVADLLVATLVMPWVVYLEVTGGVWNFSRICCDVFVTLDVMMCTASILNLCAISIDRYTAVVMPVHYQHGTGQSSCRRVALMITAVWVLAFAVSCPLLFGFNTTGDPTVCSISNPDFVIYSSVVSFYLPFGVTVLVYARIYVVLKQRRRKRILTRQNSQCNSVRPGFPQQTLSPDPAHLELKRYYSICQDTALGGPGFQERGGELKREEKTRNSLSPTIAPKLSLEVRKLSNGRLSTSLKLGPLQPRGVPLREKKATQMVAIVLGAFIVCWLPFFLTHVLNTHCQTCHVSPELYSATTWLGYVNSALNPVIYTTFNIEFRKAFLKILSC

SMILES | Ki [1] | other results
c1ccc(OC[C@H]2CC[C@H]3CN(c4ncccn4)CCN3C2)cc1 (stereo in doubt; 3a) | 4.1 nM | 
CC(=O)Nc1ccc(OC[C@@H]2CC[C@H]3CN(c4ncccn4)CCN3C2)cc1 | 316 nM | 
COC(=O)c1ccc(OC[C@@H]2CC[C@H]3CN(c4ncccn4)CCN3C2)cc1 | 127 nM | 
c1ccc(OC[C@H]2CC[C@H]3CN(c4ncccn4)CCN3C2)cc1 (stereo in doubt; 3b) | 1.7 nM | 
c1ccc(OC[C@@H]2CC[C@H]3CN(c4ncccn4)CCN3C2)cc1 | 3.5 nM | half-life [5]: 3 min
c1ccc(OC[C@@H]2CC[C@H]3CN(c4ccccc4)CCN3C2)cc1 | 1.6 nM | 
c1ccc(OC[C@@H]2CC[C@H]3CN(c4ccccn4)CCN3C2)cc1 | 1.7 nM | 
c1ccc(OCC2CCC3CN(c4ncccn4)CCN3C2)cc1 (stereo unspecified) | 3.8 nM | 

The next lines start with results.

Ki [1] | SMILES | other results
20 nM | CC(C)(C)c1ccc(OC[C@@H]2CC[C@H]3CN(c4ncccn4)CCN3C2)cc1 | 
39 nM | Fc1ccc(OC[C@@H]2CC[C@@H]3CN(c4ncc(F)cn4)CCN3C2)cc1 | 
2 nM | Fc1ccc(OC[C@H]2CC[C@H]3CN(c4ncc(F)cn4)CCN3C2)cc1 | 
5.3 nM | Fc1ccc(OC[C@@H]2CC[C@H]3CN(c4ccc(F)cc4)CCN3C2)cc1 | 
106 nM | Fc1ccc(OC[C@H]2CC[C@@H]3CN(c4ncc(F)cn4)CCN3C2)cc1 | 
3.4 nM | Fc1ccc(OC[C@@H]2CC[C@H]3CN(c4ncc(F)cn4)CCN3C2)cc1 | Ki [2]: > 2000 nM; bioavailability [3]: 93%; Cmax [4]: 730 ng/mL; half-life [5]: 12.2 min; ED50 [6]: 10 mg/kg; IC50 [7]: 180 nM; ED50 [8]: 13.3 mg/kg; half-life [9]: 270 min; ED50 [10]: > 56 mg/kg; ED50 [11]: 17.8 mg/kg; ED50 [12]: > 56 mg/kg; IC50 [13]: 150 nM
2.8 nM | Fc1ccc(OC[C@@H]2CC[C@H]3CN(c4ncccn4)CCN3C2)cc1 | half-life [5]: 3.6 min
3.2 nM | Fc1ccc(OC[C@@H]2CC[C@H]3CN(c4ccc(Cl)cn4)CCN3C2)cc1 | 
18 nM | COc1ccc(OC[C@@H]2CC[C@H]3CN(c4ncccn4)CCN3C2)cc1 | 
